Experimental findings from US6677431B2, “Design, preparation, and properties of antibacterial β-peptides” (The Trustees of the University of Pennsylvania, priority 1999, dated 2004) are described below.

In one data set the test system is osmY-lux fusion. Briefly: Stress-induced response assay, induction of osmY-lux fusion. The following applies: for induction of osmY-lux: Group II peptides; for osmY gene fusion response: Table 4, stress sensed osmotic shock. It counts as cell-based. On the procedure:
Stress-induced response and growth inhibition assays were carried out on samples of four of the β-peptide and compared to known polycationic peptides.
Polymyxin B was tested both rich, LB, medium and defined, M9, medium. The other natural peptides were tested in LB medium.
The β-peptides were tested in M9 medium. * In LB medium (data from Oh et al. Biochem. Biophys. Acta. 2000,1463: 43-54)
However, similar to the magainins, no induction of the micF-lux fusion was observed. Also, the minimum inhibitory concentrations (MIC's) were determined to be higher than those reported in the published manuscript.
Samples of these β-peptides 1 and 2 were evaluated in the stress-induced response assays.
The biolumenescence data result from test carried out according to U.S. Pat. No. 5,683,868, Highly Sensitive Method For Detecting Environmental Insults, issued Nov. 4, 1997 to LaRossa et al., the entire contents of the disclosure of are hereby incorporated by reference, The tests described in this patent permit antibacterial properties of peptides or any other materials to be assessed. […] Along these lines, FIG. 5 illustrates a relationship between relative light units and minutes of exposure of bacteria to the various materials in the legend. P×B represents polymyxin, a known antibacterial material. In the graph, a decrease in RULs corresponds to a decrease in bacteria. […]

Another data set has as its system K91 E. coli. Format: cell-based. On the procedure: (§1) The biological activities of these peptides were measured using human erythrocytes and E. coli as models for mammalian and bacterial cells, respectively. Hemolysis was monitored in 10 mM Tris, 150 mM NaCl, pH 7.0, while the bacterial assay was conducted in minimal media M9 (Table 1); both of these solutions are sufficiently transparent to allow CD and ultracentrifugation measurements (supplementary material). Under the assay conditions, the peptides gave CD spectra similar to those in Tris buffer, with the exception of H-(β^3-HLeu-β^3-HLys-β^3-HLeu)n-OH, n=5 and 6.
Antibacterial assay was performed by incubation of K 91 E. coli and peptide of different concentrations in minimal media, at pH 7.4. The peptide solution (50 μL) and K 91 E. coli culture (20 μL, grown in minimal media for 24 hr-36 hr) were mixed with 1 mL minimal media. […] The peptide dose required for 50% suppress of bacterial growth was obtained from the smooth fitted OD600 vs. log[peptide] curve.
(§2) The activity and selectivity of peptide 1 and peptide 2 were examined by antibacterial assay and hemolysis experiments. E. Coli and human erythrotytes (RBC) were used as models for bacterial cell and mammalian cell, respectively. The peptide concentration required for 50% bacterial growth suppression (IC50), and peptide concentration required for 50% RBC lysis (HD50) are listed in Table 3. […] The antibacterial activities of peptide 1 and peptide 2 are about the same except peptide 2 has slightly lower IC50. Similar trend has been observed in the previous study, that longer peptide tends to have higher activity. However, the difference in IC50 is much smaller for this series of peptide than the previously studied ones. Antibacterial peptide with good selectivity is usually represented by its low hemolysis ability. […] The HD50 is 670 μM for peptide 1 and 240 μM for peptide 2, which gives a selectivity of 111 for peptide 1 and 60 for peptide 2.

A short description of data set [1]: Peptide binding to phospholipid bilayers by CD, SOPC vesicles. The following applies: for helix formation on phosphocholin vesicles (POPC and SOPC): CD, model of mammalian cell membrane.
Data set [2] concerns human erythrocytes (RBC's). Briefly: Hemolysis assay, 50% lysis of RBC's. It counts as cell-based. On the procedure:
as §1
(§3) ∇in M9 medium (data from Hamuro et al., ref. 5) # In M9 medium.+Hemolysis experiments were performed by incubating a 0.25% suspension of human RBc's in 10 mM Tris buffer containing […] at pH 7.0 with varying amounts of peptide. The hemolytic dose required to lyse 50% of the RBC's is reported as the HD50.
(§4) Hemolysis experiments were carried out by incubating 0.25% suspension of human erythrocytes (RBC's) with peptides of different concentrations in 150 mM sodium choloride, 10 mM Tris buffer, pH 7.0. The sample was prepared by combining 400 μL of the RBC suspension and […] of the peptide solution. After incubated the sample at 37— C. for 1 hour, the sample was centrifuged at 14,000 rpm for 5 min, and the OD414 of the supernatant was measured. Mellitin (50 μM) was used to get 100% hemolysis. The hemolytic IC50 was obtained by plotting hemolysis percentage vis. peptide concentration, and the concentration required for 50% hemolysis was determined from the smooth curve-fitted graph.
as §2

A short description of data set [3]: Hemolysis assay, 50% lysis of RBC's. The following applies: human, 0.25% suspension of human erythrocytes (RBCs). It counts as cell-based, human. On the procedure: as §1, §3, §4, §2
Setting [4] is: K91 E. coli, minimal media, pH 7.4 (DeGrado lab), read-out: IC50 *.

pIC50, pKd: −log10 of the molar value. Where two headings read alike, the source gives them in different places.

In general, pIC50 refers to the IC50 on a negative log10 scale, so that one unit is a factor of ten. A word on the HC50: it is the concentration that lyses half of the red blood cells. One may read the pKd as the Kd on a negative log10 scale, so that one unit is a factor of ten.

On to `CC(C)[C@@H](CC(N)=O)NC(=O)C[C@H](CCCCN)NC(=O)C[C@H](C)NC(=O)C[C@@H](NC(=O)C[C@H](CCCCN)NC(=O)C[C@H](C)NC(=O)C[C@@H](NC(=O)C[C@H](CCCCN)NC(=O)C[C@H](C)NC(=O)C[C@@H](NC(=O)C[C@H](CCCCN)NC(=O)C[C@H](C)N)C(C)C)C(C)C)C(C)C` [Peptide 1], for which, in the data set with osmY-lux fusion, the “induction of osmY-lux” value is reported as “induction” and the “osmY gene fusion response” value is reported as “yes”. Further, the pIC50 in the data set with K91 E. coli (setting [4]) is 5.22. In addition, the negative logarithm of the IC50 (pIC50) in the data set with K91 E. coli (Table 5, read-out: IC50) was 5.22. Moreover, the “helix formation on phosphocholin vesicles (POPC and SOPC)” value in data set [1] is listed as “does not show any formation of helix”. Also, in data set [2], the HC50 came out at 670 µM and the HD50 worked out at 670 µM. For the same molecule, in data set [3] (pH 7), the HC50 at 1 h came to 670 µM.

Turning to `CC(C)[C@@H](CC(N)=O)NC(=O)C[C@H](CCCCN)NC(=O)C[C@H](C)NC(=O)C[C@@H](NC(=O)C[C@H](CCCCN)NC(=O)C[C@H](C)NC(=O)C[C@@H](NC(=O)C[C@H](CCCCN)NC(=O)C[C@H](C)NC(=O)C[C@@H](NC(=O)C[C@H](CCCCN)NC(=O)C[C@H](C)NC(=O)C[C@@H](NC(=O)C[C@H](CCCCN)NC(=O)C[C@H](C)N)C(C)C)C(C)C)C(C)C)C(C)C` [Peptide 2], in the data set with osmY-lux fusion, the “induction of osmY-lux” value is given as “induction” and the “osmY gene fusion response” value is given as “yes”. The negative logarithm of the IC50 (pIC50) in the data set on K91 E. coli (setting [4]) was 5.40. Also, the pIC50 with K91 E. coli (Table 5, read-out: IC50) was 5.40. The “helix formation on phosphocholin vesicles (POPC and SOPC)” value in data set [1] is reported as “shows increase of helix content”. For the same molecule, the pKd in data set [1] (SOPC LUV) is 4.82. In data set [2], this molecule displayed an HC50 of 240 µM and an HD50 of 240 µM. The same molecule had an HC50 at 1 h in data set [3] of 240 µM.
